Data as given in patent publication US10555909B2, “Microencapsulation of B-alanine” (INNOBIO CORPORATION LIMITED, priority 2015, dated 2020).
Values joined by “and” are separate entries in the source; they are usually repeats but may differ in a detail not shown here. Equal entries are not always repeated.

Legend:
[1] = Size distribution of β-alanine before and after sustained-release microencapsulation; type: physicochemical
[2] = Release rate experiment, USP <711> Dissolution, Apparatus 2, 50 rpm, delayed-release method B; type: physicochemical
Method: Regarding to the measurement to the release rate in the present invention, the release rate experiment in 0.1N hydrochloric acid solution and pH6.8 phosphate buffer is conducted referring to USP<711>DISSOLUTIO and using Apparatus 2 with a rotate speed of 50 rpm by DELAYED-RELEASE DOSAGE FORMS method B.

[3] = Tingling sensation evaluation after oral administration; type: in vivo
Method: The evaluation method of the tingling sensation in the present invention is that: a subject respectively administrates unsustained-release microencapsulated material containing a certain amount of β-alanine and sustained-release microencapsulated β-alanine. The time, intensity and duration of having the abnormal sensation are recorded.
The tingling sensation after oral administration of the β-alanine products A and D in Table 1 was evaluated according to a tingling sensation evaluation method, and an administration dosage, based on the β-alanine, is 22.8 mg/Kg (body weight).
In the tingling evaluation experiment in Table 5, the dosage of the subject was 45.7 mg/kg (body weight).

NCCC(=O)O [Product A, β-alanine]
Size distribution 300-450 μm ([1]; fraction 300-450 μm): 0%
Size distribution 450-900 μm ([1]; fraction 450-900 μm): 43.7%
Size distribution 900-1000 μm ([1]; fraction 900-1000 μm): 56.3%
Release in 0.1N hydrochloric acid solution (in words) ([2]; 0.1N hydrochloric acid solution): quickly and completely released
Release in pH6.8 phosphate buffer (in words) ([2]; pH6.8 phosphate buffer): quickly and completely released
Administration evaluation: Intensity ([3]; 22.8 mg/Kg body weight based on β-alanine, one value per subject, 0 no sensation, 1-5 acceptable, 6-10 unacceptable): 6 (2×) and 7
Duration of the abnormal sensation (lasting for) ([3]; 22.8 mg/Kg, per subject): 45 min and lasting for 30 min. and 1 h
Time of having the abnormal sensation (onset) ([3]; 22.8 mg/Kg, per subject): 15 min and sensation in the hands, face and ears in 10 min, and 25 min
Dissolution in water (in words): easy to be dissolved in water
